Source: patent publication US11866450B2, “Modulators of Cystic Fibrosis Transmembrane Conductance regulator, pharmaceutical compositions, methods of treatment, and process for making the modulators” (priority 2018, dated 2024)

Target: CFTR-mediated chloride transport (Homo sapiens, UniProt P13569)
Format: cell-based
Conditions: enteroid cells incubated with test compound 18-24 hours, acute 10 μM forskolin and 300 nM Compound III; for Max. Activity: % of chloride transport with 3 μM Compound A, 3 μM Compound II and 300 nM acute Compound III triple combination control
Method in brief: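 Membrane-potential fluorescence AUC over 15 min quantified CFTR chloride transport after acute forskolin (10 μM), IBMX (100 μM) and Compound III (300 nM) in chloride-free buffer. Human enteroid cells were pretreated with compound for 18–24 h; % Activity is relative to 3 μM Compound A + 3 μM Compound II + 300 nM Compound III.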

Sequence of CFTR-mediated chloride transport (P13569 whole entry, looked up): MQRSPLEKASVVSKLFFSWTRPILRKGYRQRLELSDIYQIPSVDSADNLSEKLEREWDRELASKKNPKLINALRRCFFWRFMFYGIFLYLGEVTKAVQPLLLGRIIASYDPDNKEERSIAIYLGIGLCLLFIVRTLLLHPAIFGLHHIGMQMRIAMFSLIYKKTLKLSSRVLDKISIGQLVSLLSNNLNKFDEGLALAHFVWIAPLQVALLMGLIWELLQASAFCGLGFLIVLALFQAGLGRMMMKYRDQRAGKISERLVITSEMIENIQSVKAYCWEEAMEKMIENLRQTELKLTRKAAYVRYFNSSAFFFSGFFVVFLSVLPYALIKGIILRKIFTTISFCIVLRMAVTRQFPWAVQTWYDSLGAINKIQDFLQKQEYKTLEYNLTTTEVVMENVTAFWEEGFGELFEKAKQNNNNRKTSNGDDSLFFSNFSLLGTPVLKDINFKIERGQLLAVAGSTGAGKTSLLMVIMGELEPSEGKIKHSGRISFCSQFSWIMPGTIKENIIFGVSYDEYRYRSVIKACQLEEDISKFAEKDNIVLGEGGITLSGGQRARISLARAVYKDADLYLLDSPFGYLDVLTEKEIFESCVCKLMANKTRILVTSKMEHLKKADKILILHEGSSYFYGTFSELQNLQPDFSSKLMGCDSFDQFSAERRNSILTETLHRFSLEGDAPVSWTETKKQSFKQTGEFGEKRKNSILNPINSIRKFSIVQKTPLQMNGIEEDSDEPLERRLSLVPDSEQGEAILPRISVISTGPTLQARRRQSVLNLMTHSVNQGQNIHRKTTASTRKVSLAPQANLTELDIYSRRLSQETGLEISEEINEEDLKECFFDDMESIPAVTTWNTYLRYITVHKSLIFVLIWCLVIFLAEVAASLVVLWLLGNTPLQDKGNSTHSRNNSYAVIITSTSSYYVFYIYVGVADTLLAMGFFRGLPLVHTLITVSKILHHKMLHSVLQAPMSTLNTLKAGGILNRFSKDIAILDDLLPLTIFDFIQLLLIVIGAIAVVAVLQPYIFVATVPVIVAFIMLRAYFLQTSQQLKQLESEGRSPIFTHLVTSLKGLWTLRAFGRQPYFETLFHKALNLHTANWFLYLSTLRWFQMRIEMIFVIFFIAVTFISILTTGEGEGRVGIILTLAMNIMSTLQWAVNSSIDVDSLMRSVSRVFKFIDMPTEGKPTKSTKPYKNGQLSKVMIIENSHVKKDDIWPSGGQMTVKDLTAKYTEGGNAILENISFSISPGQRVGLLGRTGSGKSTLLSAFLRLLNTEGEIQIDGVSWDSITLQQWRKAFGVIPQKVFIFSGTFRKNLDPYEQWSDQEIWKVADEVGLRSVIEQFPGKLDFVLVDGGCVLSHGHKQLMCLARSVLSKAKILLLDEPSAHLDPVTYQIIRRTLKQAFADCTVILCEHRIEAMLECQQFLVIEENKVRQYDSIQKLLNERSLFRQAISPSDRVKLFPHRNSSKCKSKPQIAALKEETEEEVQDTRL

| SMILES | EC50 [nM] | Max. Activity |
| --- | --- | --- |
| CC1(C)C[C@@H]2CCCNc3cccc(n3)S(=O)(=O)NC(=O)c3ccc(N4CC[C@H](OCCC5C6(CC6)C56CC6)C4=O)nc3N1C2 (single isomer, unassigned) [Compound 179] | < 1000 | ++ (++ is 30-60%) |
| Cc1cn2nc1S(=O)(=O)NC(=O)c1ccc(-n3ccc(OCCC(C4CC4)C4CC4)n3)nc1N1C[C@H](CCC2)CC1(C)C (single isomer, unassigned) [Compound 201, 4-[3-(3,3-Dicyclopropylpropoxy)-1H-pyrazol-1-yl]-12,20,20-trimethyl-10λ^6-thia-1,3,9,14,22-pentaazatetracyclo[16.2.1.111,14.02,7]docosa-2(7),3,5,11(22),12-pentaene-8,10,10-trione] | > 3000 | + (+ is <30%) |
| CC1(C)C[C@@H]2CN1c1nc(-n3ccc(OCCC4C5(CC5)C45CC5)n3)ccc1C(=O)NS(=O)(=O)c1cccc(n1)NCC(F)(F)C2 (single isomer, unassigned) [Compound 305, 8-[3-(2-{Dispiro[2.0.2.1]heptan-7-yl}ethoxy)-1H-pyrazol-1-yl]-16,16-difluoro-12,12-dimethyl-2λ^6-thia-3,9,11,18,23-pentaazatetracyclo[17.3.1.111,14.05,10]tetracosa-1(22),5,7,9,19(23),20-hexaene-2,2,4-trione] | > 3000 | + (+ is <30%) |
| CC1(C)C[C@@H]2CN1c1nc(-n3ccc(OCCCC4(C(F)(F)F)CC4)n3)ccc1C(=O)NS(=O)(=O)c1cccc(n1)NCCO2 (single isomer, unassigned) [Compound 159, 12,12-dimethyl-8-(3-{3-[1-(trifluoromethyl)cyclopropyl]propoxy}-1H-pyrazol-1-yl)-15-oxa-2λ^6-thia-3,9,11,18,23-pentaazatetracyclo[17.3.1.111,14.05,10]tetracosa-1(23),5,7,9,19,21-hexaene-2,2,4-trione] | > 3000 | + (+ is <30%) |
| CC1(C)CC[C@H]2CCCNc3cccc(n3)S(=O)(=O)NC(=O)c3ccc(-n4ccc(OCC5C6(CC6)C56CC6)n4)nc3N21 (single isomer, unassigned) [Compound 124, 8-[3-({dispiro[2.0.2.1]heptan-7-yl}methoxy)-1H-pyrazol-1-yl]-12,12-dimethyl-2λ^6-thia-3,9,11,19,24-pentaazatetracyclo[18.3.1.05,10.011,15]tetracosa-1(23),5(10),6,8,20(24),21-hexaene-2,2,4-trione] | < 1000 | +++ (+++ is >60%) |
| CC1(C)C[C@H]2CCCn3ccc(n3)S(=O)(=O)NC(=O)c3ccc(-n4ccc(OCCC5C(C)(C)C5(C)C)n4)nc3N1C2 (single isomer, unassigned) [Compound 206, 20,20-dimethyl-4-{3-[2-(2,2,3,3-tetramethylcyclopropyl)ethoxy]-1H-pyrazol-1-yl}-10λ^6-thia-1,3,9,14,22-pentaazatetracyclo[16.2.1.111,14.02,7]docosa-2(7),3,5,11(22),12-pentaene-8,10,10-trione] | < 1000 | + (+ is <30%) |
| CC1(C)CC[C@H]2CCCOc3cccc(c3)S(=O)(=O)NC(=O)c3ccc(-n4ccc(OCCC5(C(F)(F)F)CC5)n4)nc3N21 (single isomer, unassigned) [Compound 7, 12,12-dimethyl-8-(3-{2-[1-(trifluoromethyl)cyclopropyl]ethoxy}-1H-pyrazol-1-yl)-19-oxa-2λ^6-thia-3,9,11-triazatetracyclo[18.3.1.05,10.011,15]tetracosa-1(24),5(10),6,8,20,22-hexaene-2,2,4-trione] | < 1000 | ++ (++ is 30-60%) |
| CC1(C)C[C@H]2CCCNc3cccc(n3)S(=O)(=O)NC(=O)c3ccc(-n4ccc(OCC5(C(F)(F)F)CC5)n4)nc3N1C2 (single isomer, unassigned) [Compound 21, 12,12-dimethyl-8-(3-{[1-(trifluoromethyl)cyclopropyl]methoxy}-1H-pyrazol-1-yl)-2λ^6-thia-3,9,11,18,23-pentaazatetracyclo[17.3.1.111,14.05,10]tetracosa-1(23),5(10),6,8,19,21-hexaene-2,2,4-trione] | > 3000 | ++ (++ is 30-60%) |
| CC1(C)C[C@H]2CNc3cccc(n3)S(=O)(=O)NC(=O)c3ccc(-n4ccc(OCCC5(C(F)(F)F)CC5)n4)nc3N1C2 (single isomer, unassigned) [Compound 24, 6,6-dimethyl-10-(3-{2-[1-(trifluoromethyl)cyclopropyl]ethoxy}-1H-pyrazol-1-yl)-16λ^6-thia-2,7,9,15,21-pentaazatetracyclo[15.3.1.14,7.08,13]docosa-1(20),8,10,12,17(21),18-hexaene-14,16,16-trione] | > 3000 | + (+ is <30%) |
| CC(C)(C)CCC[C@H]1CCN(c2ccc3c(n2)N2C[C@@H](CCCNc4cccc(n4)S(=O)(=O)NC3=O)CC2(C)C)C1=O (single isomer, unassigned) [Compound 146] | < 1000 | +++ (+++ is >60%) |
| CC1(C)C[C@@H]2CN1c1nc(-n3ccc(OCCC4(C(F)(F)F)CC4)n3)ccc1C(=O)NS(=O)(=O)c1ccn(n1)CCO2 (single isomer, unassigned) [Compound 167, 20,20-dimethyl-4-(3-{2-[1-(trifluoromethyl)cyclopropyl]ethoxy}-1H-pyrazol-1-yl)-17-oxa-10λ^6-thia-1,3,9,14,22-pentaazatetracyclo[16.2.1.111,14.02,7]docosa-2(7),3,5,11(22),12-pentaene-8,10,10-trione] | < 1000 | ++ (++ is 30-60%) |
| CC1(C)C[C@H]2CCCCOc3ccc(cn3)S(=O)(=O)NC(=O)c3ccc(-n4ccc(OCCC5(C(F)(F)F)CC5)n4)nc3N1C2 (single isomer, unassigned) [Compound 103, 12,12-dimethyl-8-(3-{2-[1-(trifluoromethyl)cyclopropyl]ethoxy}-1H-pyrazol-1-yl)-19-oxa-2λ^6-thia-3,9,11,21-tetraazatetracyclo[18.2.2.111,14.05,10]pentacosa-1(23),5,7,9,20(24),21-hexaene-2,2,4-trione] | < 1000 | ++ (++ is 30-60%) |
| CC1(C)C[C@@H]2CCCNc3cccc(n3)S(=O)(=O)NC(=O)c3ccc(N4CC[C@H](OCC56CC7CC(CC(C7)C5)C6)C4=O)nc3N1C2 (single isomer, unassigned) [Compound 245] | < 1000 | +++ (+++ is >60%) |
| CC1(C)C[C@@H]2CCCNc3cccc(n3)S(=O)(=O)NC(=O)c3ccc(-n4ccc(OCCC5(C(F)(F)F)CC5)n4)nc3N1C2 [Compound 14, (14S)-12,12-dimethyl-8-(3-{2-[1-(trifluoromethyl)cyclopropyl]ethoxy}-1H-pyrazol-1-yl)-2λ^6-thia-3,9,11,18,23-pentaazatetracyclo[17.3.1.111,14.05,10]tetracosa-1(23),5,7,9,19,21-hexaene-2,2,4-trione] | < 1000 | +++ (+++ is >60%) |
| CC1(C)C[C@H]2CCCn3ccc(n3)S(=O)(=O)NC(=O)c3ccc(-n4ccc(OCCC5C6(CC6)C56CC6)n4)nc3N1C2 [Compound 186, (18R)-4-[3-(2-{dispiro[2.0.2.1]heptan-7-yl}ethoxy)-1H-pyrazol-1-yl]-20,20-dimethyl-10λ^6-thia-1,3,9,14,22-pentaazatetracyclo[16.2.1.111,14.02,7]docosa-2,4,6,11(22),12-pentaene-8,10,10-trione] | < 1000 | + (+ is <30%) |
| [2H]c1ccc2nc1NCCC[C@@H]1CN(c3nc(-n4ccc(OC([2H])([2H])C([2H])([2H])C5C6(CC6)C56CC6)n4)ccc3C(=O)NS2(=O)=O)C(C)(C)C1 [Compound 301, (14S)-8-[3-(2-{dispiro[2.0.2.1]heptan-7-yl}-1,1,2,2-tetradeuterio-ethoxy)-1H-pyrazol-1-yl]-12,12-dimethyl(20-deuterio)-2λ^6-thia-3,9,11,18,23-pentaazatetracyclo[17.3.1.111,14.05,10]tetracosa-1(23),5,7,9,19,21-hexaene-2,2,4-trione] | < 1000 | +++ (+++ is >60%) |
| CC1(C)C[C@@H]2CCCNc3cccc(n3)S(=O)(=O)NC(=O)c3ccc(N4CCN(CC5CCC(F)(F)CC5)C4=O)nc3N1C2 [Compound 214, (14S)-8-{3-[(4,4-Difluorocyclohexyl)methyl]-2-oxoimidazolidin-1-yl}-12,12-dimethyl-2λ^6-thia-3,9,11,18,23-pentaazatetracyclo[17.3.1.111,14.05,10]tetracosa-1(22),5,7,9,19(23),20-hexaene-2,2,4-trione] | < 1000 | ++ (++ is 30-60%) |
| CC1(C)C[C@@H]2CCCNc3cccc(n3)S(=O)(=O)NC(=O)c3ccc(N4CC[C@H](OCCC5(C(F)(F)F)CC5)C4=O)nc3N1C2 (single isomer, unassigned) [Compound 172] | < 1000 | ++ (++ is 30-60%) |
| CC1(C)CC2CCCNc3cccc(n3)S(=N)(=O)NC(=O)c3ccc(-n4ccc(OCCC5(C(F)(F)F)CC5)n4)nc3N1C2 (stereo not shown) [Compound 262, 2-imino-12,12-dimethyl-8-(3-{2-[1-(trifluoromethyl)cyclopropyl]ethoxy}-1H-pyrazol-1-yl)-2λ^6-thia-3,9,11,18,23-pentaazatetracyclo[17.3.1.111,14.05,10]tetracosa-1(23),5,7,9,19,21-hexaene-2,4-dione] | < 1000 | +++ (+++ is >60%) |
| CC1(C)C[C@@H]2CCCNc3cccc(n3)S(=O)(=O)NC(=O)c3ccc(N4CCN(CCCC5(C(F)(F)F)CC5)C4=O)nc3N1C2 [Compound 205, (14S)-12,12-Dimethyl-8-(2-oxo-3-{3-[1-(trifluoromethyl)cyclopropyl]propyl}imidazolidin-1-yl)-2λ^6-thia-3,9,11,18,23-pentaazatetracyclo[17.3.1.111,14.05,10]tetracosa-1(22),5,7,9,19(23),20-hexaene-2,2,4-trione] | < 1000 | +++ (+++ is >60%) |
